US20230127839A1, “COMPOUNDS AND COMPOSITIONS FOR TREATING CONDITIONS ASSOCIATED WITH STING ACTIVITY” (IFM Due, Inc., priority 2019, published 2023)

These compounds were tested against T1, hSTING (Homo sapiens, UniProt Q86WV6, G230A/H232R/R293Q/R71H) (assay: STING reporter assay (luciferase) in THP1-Dual KO-IFNAR2 cells stimulated with 2'3'cGAMP). Settings: 2'3'cGAMP 15 μM, 24 h, luciferase reporter activity.
T1 construct: host or cells: THP1-Dual KO-IFNAR2 cells
T1 sequence (Q86WV6 whole entry R71H/G230A/H232R/R293Q): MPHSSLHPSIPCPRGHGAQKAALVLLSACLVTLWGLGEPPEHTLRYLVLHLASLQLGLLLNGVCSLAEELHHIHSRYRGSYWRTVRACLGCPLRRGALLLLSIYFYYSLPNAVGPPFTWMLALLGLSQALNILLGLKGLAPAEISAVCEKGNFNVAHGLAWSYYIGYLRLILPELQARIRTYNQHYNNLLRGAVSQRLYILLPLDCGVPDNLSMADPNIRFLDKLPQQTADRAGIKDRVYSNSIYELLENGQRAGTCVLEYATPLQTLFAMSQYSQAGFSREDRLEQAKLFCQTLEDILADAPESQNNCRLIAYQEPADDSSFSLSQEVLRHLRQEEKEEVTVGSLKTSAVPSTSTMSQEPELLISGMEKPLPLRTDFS
Format: cell-based
Procedure: STING pathway activation by the compounds described herein is measured using THP1-Dual™ cells (KO-IFNAR2).
THP1-Dual™ KO-IFNAR2 Cells (obtained from invivogen) are maintained in RPMI, 10% FCS, 5 ml P/S, 2 mM L-glut, 10 mM Hepes, and 1 mM sodium pyruvate.
Compounds are spotted in empty 384 well tissue culture plates (Greiner 781182) by Echo for a final concentration of 0.0017-100 μM. Cells are plated into the TC plates at 40 μL per well, 2×10E6 cells/mL. For activation with STING ligand, 2′3′cGAMP (MW 718.38, obtained from Invivogen), is prepared in Optimem media.
The following solutions are prepared for each 1×384 plate: • Solution A: 2 mL Optimem with one of the following stimuli: • 60 uL of 10 mM 2′3′cGAMP->150 μM stock • Solution B: 2 mL Optimem with 60 μL Lipofectamine 2000->Incubate 5 min at RT
2 mL of solution A and 2 ml Solution B is mixed and incubated for 20 min at room temperature (RT). 20 uL of transfection solution (A+B) is added on top of the plated cells, with a final 2′3′cGAMP concentration of 15 μM. The plates are then centrifuged immediately at 340 g for 1 minute, after which they are incubated at 37° C., 5% CO2, >98% humidity for 24 h. Luciferase reporter activity is then measured. EC50 values are calculated by using standard methods known in the art.
Luciferase reporter assay: 10 μL of supernatant from the assay is transferred to white 384-plate with flat bottom and squared wells. One pouch of QUANTI-Luc™ Plus us dissolved in 25 mL of water. 100 μL of QLC Stabilizer per 25 mL of QUANTI-Luc™ Plus solution is added. 50 μL of QUANTI-Luc™ Plus/QLC solution per well is then added. Luminescence is measured on a Platereader (e.g., Spectramax I3X (Molecular Devices GF3637001)).
Luciferase reporter activity is then measured. EC50 values are calculated by using standard methods known in the art.
`C[C@H]1CN(c2ncc(NC(=O)Nc3c[nH]c4cc(F)c(F)cc34)cc2Cl)CCO1` [Compound 188, (S)-1-(5-chloro-6-(2-methylmorpholino)pyridin-3-yl)-3-(5,6-difluoro-1H-indol-3-yl)urea] showed an EC50 of 200 to 1000 nM.
Work on `O=C(Nc1cnc(N2CCC(F)(F)CC2)cn1)Nc1c[nH]c2ccc(Cl)cc12` [Compound 189, 1-(5-chloro-1H-indol-3-yl)-3-(5-(4,4-difluoropiperidin-1-yl)pyrazin-2-yl)urea] yielded an EC50 of 40 to 200 nM.
`O=C(Nc1ccc(C2CCC(F)(F)CC2)nc1)Nc1c[nH]c2ccccc12` [Compound 190, 1-(6-(4,4-difluorocyclohexyl)pyridin-3-yl)-3-(1H-indol-3-yl)urea] gave an EC50 of 200 to 1000 nM.
Work on `O=C(Nc1cnc(C2CCC(F)(F)CC2)c(Cl)c1)Nc1c[nH]c2ccc(O)cc12` [Compound 191, 1-(5-chloro-6-(4,4-difluorocyclohexyl)pyridin-3-yl)-3-(5-hydroxy-1H-indol-3-yl)urea] yielded an EC50 of 200 to 1000 nM.
For `O=C(Nc1ccc(C2CCC(F)(F)CC2)nc1)Nc1c[nH]c2ccc(I)cc12` [Compound 192, 1-(6-(4,4-difluorocyclohexyl)pyridin-3-yl)-3-(5-iodo-1H-indol-3-yl)urea], the EC50 was 40 to 200 nM.
Work on `O=C(Nc1cnc(N2CCC(F)(F)CC2)c(Cl)c1)Nc1c[nH]c2ccc(F)cc12` [Compound 193, 1-(5-chloro-6-(4,4-difluoropiperidin-1-yl)pyridin-3-yl)-3-(5-fluoro-1H-indol-3-yl)urea] yielded an EC50 of 40 to 200 nM.
`O=C(Nc1cnc(N2CCC(F)(F)CC2)cn1)Nc1c[nH]c2cc(F)c(F)cc12` [Compound 194, 1-(5,6-difluoro-1H-indol-3-yl)-3-(5-(4,4-difluoropiperidin-1-yl)pyrazin-2-yl)urea] was tested, and the EC50 was 200 to 1000 nM.
For `Cc1cc(NC(=O)Nc2c[nH]c3ccc(F)cc23)cnc1N1CCC(F)(F)CC1` [Compound 195, 1-(6-(4,4-difluoropiperidin-1-yl)-5-methylpyridin-3-yl)-3-(5-fluoro-1H-indol-3-yl)urea], the EC50 was 40 to 200 nM.
`O=C(Nc1cnc(N2CCC(F)(F)CC2)c(Cl)c1)Nc1c[nH]c2ccc(Cl)cc12` [Compound 196, 1-(5-chloro-1H-indol-3-yl)-3-(5-chloro-6-(4,4-difluoropiperidin-1-yl)pyridin-3-yl)urea] gave an EC50 of 40 to 200 nM.
`Cc1ccc2[nH]cc(NC(=O)Nc3cnc(N4CCC(F)(F)CC4)c(C)c3)c2c1` [Compound 197, 1-(6-(4,4-difluoropiperidin-1-yl)-5-methylpyridin-3-yl)-3-(5-methyl-1H-indol-3-yl)urea] was tested, and the EC50 was 40 to 200 nM.
Compound `Cc1cc(NC(=O)Nc2c[nH]c3ccccc23)cnc1N1CCC2(CC1)CC2` [Compound 198, 1-(1H-indol-3-yl)-3-(5-methyl-6-(6-azaspiro[2.5]octan-6-yl)pyridin-3-yl)urea] has an EC50 of 40 to 200 nM.
Work on `O=C(Nc1cnc(N2CCC(F)(F)CC2)c(Cl)c1)Nc1c[nH]c2cc(F)c(F)cc12` [Compound 199, 1-(5-chloro-6-(4,4-difluoropiperidin-1-yl)pyridin-3-yl)-3-(5,6-difluoro-1H-indol-3-yl)urea] yielded an EC50 of 40 to 200 nM.
`Cc1cc(NC(=O)Nc2c[nH]c3cc(F)c(F)cc23)cnc1N1CCC(F)(F)CC1` [Compound 200, 1-(5,6-difluoro-1H-indol-3-yl)-3-(6-(4,4-difluoropiperidin-1-yl)-5-methylpyridin-3-yl)urea] showed an EC50 of 40 to 200 nM.
Compound `Cc1cc(NC(=O)Nc2c[nH]c3ccccc23)cnc1N1CCC(F)(F)CC1` [Compound 201, 1-(6-(4,4-difluoropiperidin-1-yl)-5-methylpyridin-3-yl)-3-(1H-indol-3-yl)urea] has an EC50 of 200 to 1000 nM.
`COC1CCN(c2ncc(NC(=O)Nc3c[nH]c4ccccc34)cc2C)CC1` [Compound 202, 1-(1H-indol-3-yl)-3-(6-(4-methoxypiperidin-1-yl)-5-methylpyridin-3-yl)urea] gave an EC50 of 1000 to 5000 nM.
With `O=C(Nc1ccc(C2CCC(F)(F)CC2)nc1)Nc1c[nH]c2ccc(Br)cc12` [Compound 203, 1-(5-bromo-1H-indol-3-yl)-3-(6-(4,4-difluorocyclohexyl)pyridin-3-yl)urea] the EC50 was 40 to 200 nM.
`O=C(Nc1ccc(N2CCC(F)(F)CC2)nn1)Nc1c[nH]c2ccccc12` [Compound 204, 1-(6-(4,4-difluoropiperidin-1-yl)pyridazin-3-yl)-3-(1H-indol-3-yl)urea] was tested, and the EC50 was 1000 to 5000 nM.
`O=C(Nc1cnc(N2CCC(F)(F)CC2)cn1)Nc1c[nH]c2ccccc12` [Compound 205, 1-(5-(4,4-difluoropiperidin-1-yl)pyrazin-2-yl)-3-(1H-indol-3-yl)urea] showed an EC50 of 200 to 1000 nM.
`O=C(Nc1cnc(N2CCC(F)(F)CC2)c(Cl)c1)Nc1c[nH]c2ccccc12` [Compound 206, 1-(5-chloro-6-(4,4-difluoropiperidin-1-yl)pyridin-3-yl)-3-(1H-indol-3-yl)urea] gave an EC50 of 40 to 200 nM.
For `N#Cc1cc(NC(=O)Nc2c[nH]c3ccccc23)ccc1C1CCC(F)(F)CC1` [Compound 207, 1-(3-cyano-4-(4,4-difluorocyclohexyl)phenyl)-3-(1H-indol-3-yl)urea], the EC50 was 40 to 200 nM.
`O=C(Nc1cnc(N2CCC(F)(F)CC2)c(Cl)c1)Nc1c[nH]c2ccc(Br)cc12` [Compound 208, 1-(5-bromo-1H-indol-3-yl)-3-(5-chloro-6-(4,4-difluoropiperidin-1-yl)pyridin-3-yl)urea] showed an EC50 of 1000 to 5000 nM.
`O=C(Nc1cnn(C2CCC(F)(F)CC2)c1)Nc1c[nH]c2ccc(Cl)cc12` [Compound 209, 1-(5-chloro-1H-indol-3-yl)-3-(1-(4,4-difluorocyclohexyl)-1H-pyrazol-4-yl)urea] showed an EC50 of 200 to 1000 nM.
`O=C(Nc1cn(C2CCC(F)(F)CC2)cn1)Nc1c[nH]c2ccc(F)cc12` [Compound 210, 1-[1-(4,4-difluorocyclohexyl)imidazol-4-yl]-3-(5-fluoro-1H-indol-3-yl)urea] showed an EC50 of 1000 to 5000 nM.
Work on `O=C(Nc1ccn(C2CCC(F)(F)CC2)n1)Nc1c[nH]c2ccc(F)cc12` [Compound 211, 1-(1-(4,4-difluorocyclohexyl)-1H-pyrazol-3-yl)-3-(5-fluoro-1H-indol-3-yl)urea] yielded an EC50 of 1000 to 5000 nM.
`O=C(Nc1cn(C2CCC(F)(F)CC2)cn1)Nc1c[nH]c2ccc(Cl)cc12` [Compound 212, 3-(5-chloro-1H-indol-3-yl)-1-[1-(4,4-difluorocyclohexyl)imidazol-4-yl]urea] showed an EC50 of 1000 to 5000 nM.
`O=C(Nc1ccnc(C2CCN(CC(F)(F)F)CC2)c1)Nc1c[nH]c2cc(F)c(F)cc12` [Compound 213, 1-(5,6-difluoro-1H-indol-3-yl)-3-(2-(1-(2,2,2-trifluoroethyl)piperidin-4-yl)pyridin-4-yl)urea] gave an EC50 of 1000 to 5000 nM.
`O=C(Nc1cnn(C2CCC3(CC2)CC3)c1)Nc1c[nH]c2ccc(Cl)cc12` [Compound 214, 1-(5-chloro-1H-indol-3-yl)-3-(1-(spiro[2.5]octan-6-yl)-1H-pyrazol-4-yl)urea] gave an EC50 of 200 to 1000 nM.
`O=C(Nc1cnn(C2CC(F)(F)C2)c1)Nc1c[nH]c2ccc(Cl)cc12` [Compound 215, 1-(5-chloro-1H-indol-3-yl)-3-(1-(3,3-difluorocyclobutyl)-1H-pyrazol-4-yl)urea] gave an EC50 of 200 to 1000 nM.
Work on `O=C(Nc1cnn(C2CC(F)(F)C2)c1)Nc1c[nH]c2cc(F)c(F)cc12` [Compound 216, 1-(5,6-difluoro-1H-indol-3-yl)-3-(1-(3,3-difluorocyclobutyl)-1H-pyrazol-4-yl)urea] yielded an EC50 of 1000 to 5000 nM.
With `CC(CC1CCC1)n1cc(NC(=O)Nc2c[nH]c3ccc(Cl)cc23)cn1` (centres unmarked) [Compound 217, 1-(5-chloro-1H-indol-3-yl)-3-(1-(1-cyclobutylpropan-2-yl)-1H-pyrazol-4-yl)urea] the EC50 was 200 to 1000 nM.
`O=C(Nc1ccc(C2CN(CC(F)(F)F)C2)c(Cl)c1)Nc1c[nH]c2ccc(Cl)cc12` [Compound 218, 1-(5-chloro-1H-indol-3-yl)-3-(3-chloro-4-(1-(2,2,2-trifluoroethyl)azetidin-3-yl)phenyl)urea] gave an EC50 of 40 to 200 nM.
In the case of `O=C(Nc1ccnc(C2CCCN(CC(F)(F)F)C2)c1)Nc1c[nH]c2cc(F)c(F)cc12` (centres unmarked) [Compound 219, 1-(5,6-difluoro-1H-indol-3-yl)-3-(2-(1-(2,2,2-trifluoroethyl)piperidin-3-yl)pyridin-4-yl)urea], the EC50 is reported as 1000 to 5000 nM.
Work on `O=C(Nc1ccnc(C2CCC(F)(F)CC2)c1)Nc1c[nH]c2cc(F)c(F)cc12` [Compound 220, 1-(5,6-difluoro-1H-indol-3-yl)-3-(2-(4,4-difluorocyclohexyl)pyridin-4-yl)urea] yielded an EC50 of 200 to 1000 nM.
In the case of `O=C(Nc1cc(Cl)nc(C2CCC(F)(F)CC2)c1)Nc1c[nH]c2ccc(Cl)cc12` [Compound 221, 1-(5-chloro-1H-indol-3-yl)-3-(2-chloro-6-(4,4-difluorocyclohexyl)pyridin-4-yl)urea], the EC50 is reported as 40 to 200 nM.
In the case of `O=C(Nc1cnn(CC2CCC(F)(F)CC2)c1)Nc1c[nH]c2ccc(Cl)cc12` [Compound 222, 1-(5-chloro-1H-indol-3-yl)-3-(1-((4,4-difluorocyclohexyl)methyl)-1H-pyrazo1-4-yl)urea], the EC50 is reported as 200 to 1000 nM.
